Calls of active or inactive are those of the source. The calls are words filed in the database; no cut-off is given here.
Key:
[1] = Metabolic stability in human liver microsomes assessed as unbound intrinsic clearance at 1 uM measured upto 30 mins by LC-MS/MS analysis; type: ADME, Microsome; settings: 0.5 h
[2] = Metabolic stability in human hepatocytes assessed as intrinsic clearance measured per 10^6 viable cells/ml at 1 uM measured upto 120 mins by LC-MS/MS analysis; type: ADME, cell-based, Hepatocyte; settings: read-out: CLH
[3] = Octanol/water partition coefficient, logD of the compound at pH 7.4 by shake flask method; type: physicochemical
[4] = Metabolic stability in human hepatocytes assessed as unbound intrinsic clearance measured per 10^6 viable cells/ml at 1 uM measured upto 120 mins by LC-MS/MS analysis; type: ADME, cell-based, Hepatocyte; settings: 2 h
Relaxin receptor 1 [5] = target: T1, Relaxin receptor 1 (Homo sapiens, UniProt Q9HBX9)
T1 sequence (Q9HBX9 whole entry): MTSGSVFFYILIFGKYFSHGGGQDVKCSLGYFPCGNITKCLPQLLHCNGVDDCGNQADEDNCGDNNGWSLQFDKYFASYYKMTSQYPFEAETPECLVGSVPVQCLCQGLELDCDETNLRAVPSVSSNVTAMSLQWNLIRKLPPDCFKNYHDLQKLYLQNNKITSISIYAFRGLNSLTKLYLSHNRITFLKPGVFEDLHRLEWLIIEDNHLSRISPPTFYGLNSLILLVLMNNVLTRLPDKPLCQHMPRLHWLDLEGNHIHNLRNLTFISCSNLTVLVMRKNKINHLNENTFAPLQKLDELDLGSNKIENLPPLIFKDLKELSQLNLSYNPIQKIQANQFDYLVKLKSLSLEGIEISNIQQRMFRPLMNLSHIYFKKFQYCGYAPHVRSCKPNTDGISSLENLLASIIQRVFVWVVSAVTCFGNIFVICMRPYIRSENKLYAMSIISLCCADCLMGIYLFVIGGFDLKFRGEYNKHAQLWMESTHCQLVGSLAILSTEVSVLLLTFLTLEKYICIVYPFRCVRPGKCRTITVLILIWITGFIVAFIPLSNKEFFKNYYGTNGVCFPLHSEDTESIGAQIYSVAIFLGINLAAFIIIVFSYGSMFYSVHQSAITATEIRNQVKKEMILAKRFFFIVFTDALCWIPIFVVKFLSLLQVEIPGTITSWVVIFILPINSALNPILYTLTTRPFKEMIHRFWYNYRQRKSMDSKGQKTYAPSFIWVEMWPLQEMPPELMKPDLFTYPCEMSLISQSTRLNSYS
Description: Agonist activity at human RXFP1 expressed in CHO cells assessed as increase in cAMP level measured after 2 hrs by HTRF cAMP assay

[6] = Metabolic stability in human liver microsomes assessed as intrinsic clearance at 1 uM measured upto 30 mins by LC-MS/MS analysis; type: ADME, Microsome; settings: read-out: CLH
[7] = Apparent permeability across apical to basolateral side in human Caco-2 cells at pH 7.4 by LC-MS/MS analysis; type: ADME, cell-based; settings: Caco-2, pH 7.4
[8] = target: T2, Relaxin receptor 1 (Homo sapiens) (UniProt Q9HBX9); settings: CHO-K1, time 15.0 min
T2 sequence (whole entry): T1 sequence (Q9HBX9 whole entry)

[9] = Protein binding in human plasma assessed as fraction unbound at 5 uM measured after 18 hrs by LC-MS/MS analysis; type: ADME, cell-free; settings: read-out: PPB
[10] = Protein binding in rat plasma assessed as fraction unbound at 5 uM measured after 18 hrs by LC-MS/MS analysis; type: ADME, cell-free; settings: read-out: PPB
[11] = Metabolic stability in rat hepatocytes assessed as unbound intrinsic clearance measured per 10^6 viable cells/ml at 1 uM measured upto 120 mins by LC-MS/MS analysis; type: ADME, cell-based, Hepatocyte; settings: 2 h
[12] = Volume of distribution at steady state in Han Wistar rat at 0.96 micromol/kg, iv by LC-MS/MS analysis; type: ADME, organism-based; settings: in vivo, dose 0.96 µmol/kg, read-out: Vdss
[13] = Clearance in Han Wistar rat at 0.96 micromol/kg, iv by LC-MS/MS analysis; type: ADME, organism-based; settings: in vivo, dose 0.96 µmol/kg
Relaxin receptor 1 [14] = target: T3, Relaxin receptor 1 (Mus musculus, UniProt Q6R6I7)
T3 sequence (Q6R6I7 whole entry): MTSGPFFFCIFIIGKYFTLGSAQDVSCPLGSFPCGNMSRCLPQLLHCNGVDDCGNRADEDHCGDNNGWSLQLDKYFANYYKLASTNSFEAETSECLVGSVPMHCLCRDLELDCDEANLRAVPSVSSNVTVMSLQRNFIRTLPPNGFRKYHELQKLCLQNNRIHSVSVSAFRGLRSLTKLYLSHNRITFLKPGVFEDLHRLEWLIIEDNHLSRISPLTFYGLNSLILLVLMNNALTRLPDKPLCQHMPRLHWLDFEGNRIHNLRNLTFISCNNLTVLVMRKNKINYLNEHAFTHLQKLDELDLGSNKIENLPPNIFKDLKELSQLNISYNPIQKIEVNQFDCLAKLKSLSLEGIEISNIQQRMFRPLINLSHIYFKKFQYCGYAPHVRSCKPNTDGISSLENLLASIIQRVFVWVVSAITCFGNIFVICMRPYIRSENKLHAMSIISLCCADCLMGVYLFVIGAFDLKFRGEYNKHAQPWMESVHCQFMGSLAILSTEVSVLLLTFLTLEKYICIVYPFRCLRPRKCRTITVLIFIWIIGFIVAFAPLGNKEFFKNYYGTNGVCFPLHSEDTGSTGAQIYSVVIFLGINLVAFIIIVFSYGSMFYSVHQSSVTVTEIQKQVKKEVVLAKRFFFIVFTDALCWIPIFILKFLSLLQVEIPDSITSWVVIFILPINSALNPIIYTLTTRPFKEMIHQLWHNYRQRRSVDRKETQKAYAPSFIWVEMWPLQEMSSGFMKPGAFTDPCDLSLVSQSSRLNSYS
Description: Agonist activity at mouse RXFP1 expressed in CHO-K1 cells assessed as increase in cAMP level measured after 2 hrs by HTRF cAMP assay

[15] = Oral bioavailability in Han Wistar rat at 1.9 micromol/kg by LC-MS/MS analysis; type: ADME, organism-based; settings: in vivo, 1.9 µmol/kg
[16] = Half life in Han Wistar rat at 0.96 micromol/kg, iv by LC-MS/MS analysis; type: ADME, organism-based; settings: in vivo, dose 0.96 µmol/kg

SMILES	CL free [1] [µL/min/mg]	hepatocyte CLint at 1 µM [2] [µL/min/1e6 cells]	logD [3]	CL free [4]	EC50 (Relaxin receptor 1 [5]) [nM]	microsomal CLint at 1 µM [6] [µL/min/mg]	Papp A→B [7] [×10⁻⁶ cm/s]	pEC50 [8]	fraction unbound at 18 h, 5 µM [9]	fraction unbound at 18 h, 5 µM [10]	CL free [11] [µL/min]	Vd [12] [L/kg]	clearance [13] [mL/min/kg]	EC50 (Relaxin receptor 1 [14]) [nM]	bioavailability [15] [%]	half-life [16] [h]
COc1ccc(O[C@H]2CC[C@@](C)(C(=O)O)CC2)cc1C(=O)N[C@@H]1[C@H]2CC[C@H](C2)[C@@H]1C(=O)NCC1(C)CCC1	46	6.1	2.9	10 µL/min	100	36	–	–	–	–	–	–	–	–	–	–
COc1cc(F)c(O[C@H]2CC[C@@](CO)(C(=O)O)CC2)cc1C(=O)N[C@@H]1[C@H]2CC[C@H](C2)[C@@H]1C(=O)NCC1(C)CCC1	< 6.2	6.2	1.5	11 µL/min	–	< 5.1	3.1	–	–	–	–	–	–	–	–	–
CC1(CNC(=O)[C@H]2[C@@H]3CC[C@@H](C3)[C@H]2NC(=O)c2cc(O[C@H]3CC[C@@](C)(C(=O)O)CC3)c(C#N)cn2)CCC1	20	3.1	2.4	4.2 µL/min	100	17	–	–	–	–	–	–	–	–	–	–
COc1cc(C(F)(F)F)c(O[C@H]2CC[C@@](C)(C(=O)O)CC2)cc1C(=O)N[C@@H]1[C@H]2CC[C@H](C2)[C@@H]1C(=O)NCC1(C)CCC1	44	3.9	4.1	93 µL/min	31.6	20	–	–	–	–	–	–	–	–	–	–
COc1cc(F)c(O[C@H]2CC[C@@](C)(c3noc(=O)[nH]3)CC2)cc1C(=O)N[C@@H]1[C@H]2CC[C@H](C2)[C@@H]1C(=O)NCC1(C)CCC1	212	12	3.8	–	79.4	87	–	–	–	–	–	–	–	–	–	–
CC1(CNC(=O)[C@H]2[C@@H]3CC[C@@H](C3)[C@H]2NC(=O)c2ccc(F)c(O[C@H]3CC[C@@](C)(C(=O)O)CC3)c2)CCC1	8.8	8.4	3	16 µL/min	316	6.6	–	–	–	–	–	–	–	–	–	–
CC(C)Oc1ccccc1C(=O)Nc1ccccc1C(=O)Nc1cccc(S(=O)(=O)C(F)(F)F)c1	–	–	> 4	3.07 10^3uL/min	–	–	–	inactive	< 0.0002	< 0.0002	–	–	–	–	–	–
COCc1cc(OC)c(C(=O)N[C@@H]2[C@H]3CC[C@H](C3)[C@@H]2C(=O)NCC2(C)CCC2)cc1O[C@H]1CC[C@@](C)(C(=O)O)CC1	15	3.2	3	44 µL/min	1000	11	–	–	–	–	–	–	–	–	–	–
CC1(CNC(=O)[C@H]2[C@@H]3CC[C@@H](C3)[C@H]2N2CCc3cc(F)c(O[C@H]4CC[C@@](C)(C(=O)O)CC4)cc3C2=O)CCC1	70	2.1	–	3 µL/min	1580	44	–	–	–	–	–	–	–	–	–	–
COc1cc(F)c(C[C@H]2CC[C@@](C)(C(=O)O)CC2)cc1C(=O)N[C@@H]1[C@H]2CC[C@H](C2)[C@@H]1C(=O)NCC1(C)CCC1	269	9.8	4.3	43 µL/min	158	78	–	–	–	–	–	–	–	–	–	–
COc1cc(F)c(O[C@H]2CC[C@@](CC#N)(C(=O)O)CC2)cc1C(=O)N[C@@H]1[C@H]2CC[C@H](C2)[C@@H]1C(=O)NCC1(C)CCC1	18	10	1.4	15 µL/min	79.4	13	–	–	–	–	–	–	–	–	–	–
CC1(CNC(=O)[C@H]2[C@@H]3CC[C@@H](C3)[C@H]2NC(=O)c2cc(O[C@H]3CC[C@@](C)(C(=O)O)CC3)ccn2)CCC1	35	2.3	2.5	3.3 µL/min	1580	29	–	–	–	–	–	–	–	–	–	–
CC1(CNC(=O)[C@H]2[C@@H]3CC[C@@H](C3)[C@H]2NC(=O)c2cc(O[C@H]3CC[C@@](C)(C(=O)O)CC3)c(F)cc2OCF)CCC1	62	8.4	3.3	15 µL/min	6.31	36	–	–	–	–	–	–	–	–	–	–
COc1c(C#N)cc(O[C@H]2CC[C@@](C)(C(=O)O)CC2)cc1C(=O)N[C@@H]1[C@H]2CC[C@H](C2)[C@@H]1C(=O)NCC1(C)CCC1	69	11	2.9	16 µL/min	79.4	50	–	–	–	–	–	–	–	–	–	–
CC1(CNC(=O)[C@H]2C3CCC(C3)[C@H]2NC(=O)c2cc(O[C@H]3CC[C@@](C)(C(=O)O)CC3)c(C#N)cc2F)CCC1 (stereo partly drawn)	27	7.9	3.3	16 µL/min	15.8	14	–	–	–	–	–	–	–	–	–	–
COc1cc(F)c(O[C@H]2CC[C@@](C)(C(=O)O)CC2)cc1C(=O)N[C@@H]1[C@H]2CC[C@H](C2)[C@@H]1C(=O)NCC(C)(C)C(F)(F)F	23	4.2	3.19	8.6 µL/min	–	13	66	–	–	–	–	–	–	–	–	–
COc1cc(F)c(O[C@H]2CC[C@@H](C(=O)O)CC2)cc1C(=O)N[C@@H]1[C@H]2CC[C@H](C2)[C@@H]1C(=O)NCC(C)(C)C	8.5	2.2	2.3	3.4 µL/min	1000	6.8	–	–	–	0.079	133	0.6	64	> 39800	5.6	1.8
Cc1cc(F)c(O[C@H]2CC[C@@](C)(C(=O)O)CC2)cc1C(=O)N[C@@H]1[C@H]2CC[C@H](C2)[C@@H]1C(=O)NCC1(C)CCC1	23	15	2.83	22 µL/min	2000	161	–	–	–	–	–	–	–	–	–	–
COc1cc(F)c(O[C@H]2CC[C@](C(=O)O)(C(F)(F)F)CC2)cc1C(=O)N[C@@H]1[C@H]2CC[C@H](C2)[C@@H]1C(=O)NCC1(C)CCC1	< 5.5	3.9	2.1	8.8 µL/min	–	< 3	35	–	–	–	–	–	–	–	–	–

Reference: ChEMBL document CHEMBL5518236, “Discovery of Clinical Candidate AZD5462, a Selective Oral Allosteric RXFP1 Agonist for Treatment of Heart Failure” (J Med Chem, 2024)
